Assay [1] concerns male Sprague-Dawley rats (intact, hemi-orchidectomized, castrated). Briefly: Plasma testosterone, FSH, LH and osteocalcin in rats of varying hormonal status. Type of assay: in vivo, rat. Particulars: for Plasma FSH levels / Plasma LH levels / Plasma osteocalcin levels / Plasma testosterone levels: 0.5 mg/day osmotic pump, 14 days. An excerpt:
(§1) Methods: Compound VI was synthesized and characterized in the laboratory of Dr. Duane Miller at the University of Tennessee, Memphis, Tenn. Male Sprague-Dawley rats were purchased from Harlan Biosciences (Indianapolis, Ind.). The animals were maintained on a 12-h cycle of light and dark with food and water available ad libitum. All animal studies were reviewed and approved by the Animal Care and Use Committee of The Ohio State University, and conformed to the Principles of Laboratory Animal Care. Immature male Sprague-Dawley rats weighing […] were randomly distributed into 9 groups of 5 animals. One day before the initiation of drug treatment, groups 4 through 6 and groups 7 through 9 received unilateral or bilateral orchidectomy, respectively, via a midline scrotal incision. […] All drugs given to animals were freshly prepared as solutions in polyethylene glycol 300 (PEG 300). Groups 4 and 7 received treatment with vehicle alone (i.e., PEG 300). Animals in groups 3, 6, and 9 received testosterone propionate (TP, 0.5 mg/day) via implantation of subdermal osmotic pumps (Model 2002, Durect Corporation, Palo Alto, Calif.). Animals in groups 2, 5, and 8 received Compound VI (0.5 mg/day) via implantation of subdermal osmotic pumps. After 14 days of drug treatment, rats were weighed, anesthetized, and sacrificed. Blood samples were collected by venipuncture of the abdominal aorta. Plasma samples were analyzed for testosterone, FSH, LH and osteocalcin. Testosterone concentrations were measured by AniLytics Inc. (Gaithersburg, Md.). FSH and LH levels were measured by the National Hormone and Peptide Program (Dr. A F Parlow, UCLA, CA). Plasma osteocalcin levels were determined using a commercially available rat osteocalcin EIA kit from Biomedical Technologies Inc. (Stoughton, Mass.). The ventral prostates, seminal vesicles, and levator ani muscle were removed and weighed. Osmotic pumps were also removed from animals to check for correct pump operation. The weights of all organs were normalized to body weight, and analyzed for any statistically significant differences between groups using single-factor ANOVA with the alpha value set a priori at p<0.05. The weights of prostates and seminal vesicles were used as indices for evaluation of androgenic activity, and the levator ani muscle weight was used to evaluate the anabolic activity. Statistical analyses of parameters from complete blood count or serum chemical profiling, wherever applicable, were performed by single-factor ANOVA with the alpha value set a priori at p<0.05.

The test system is the same in assay [2]. Briefly: Prostate, seminal vesicle and levator ani muscle weights in rats of varying hormonal status. Type of assay: in vivo, rat. Particulars: 0.5 mg/day, 14 days.
Source text: as §1

Assay [3] has as its target T1, human 5α-reductase type 1 (Homo sapiens, UniProt P18405).
T1 construct: expressed in transfected cells; host or cells: COS1 cells; expression vectors obtained from Dr. David W. Russell
T1 sequence (P18405 1-259): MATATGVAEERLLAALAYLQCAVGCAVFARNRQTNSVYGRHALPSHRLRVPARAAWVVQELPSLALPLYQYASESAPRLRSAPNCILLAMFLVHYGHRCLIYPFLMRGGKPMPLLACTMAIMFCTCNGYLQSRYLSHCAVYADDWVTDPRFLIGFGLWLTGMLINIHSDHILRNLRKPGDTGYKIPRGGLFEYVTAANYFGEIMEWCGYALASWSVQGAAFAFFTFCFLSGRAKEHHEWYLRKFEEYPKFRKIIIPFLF
Type of assay: cell-based. Conditions: testosterone 4 μM alone, 2 hours. On the procedure: (§2) Methods: COS1 (American Type Culture Collection, Manassas, Va.) cells were plated in twelve-well plates at a density of 60,000 cells/well and transiently transfected with expression vectors for human 5•-reductase (obtained from Dr. David W. Russell, Southwestern Medical Center, Dallas, Tex.). LipofectAMINE PLUS™ Reagent (Invitrogen, Carlsbad, Calif.) was used for transfection. pCMV•SPORT-•gal plasmid (Invitrogen, Carlsbad, Calif.) was co-transfected to monitor transfection efficiency. Forty-eight hours after transfection, testosterone (4 μM) and/or Compound VI (2 or 200 μM) were added to the medium and incubated at 37° C. Aliquots of the culture medium were removed after 2 hours and the reaction stopped by addition of ice-cold acetonitrile (1:1, vol:vol). Testosterone and Compound VI concentrations in the incubate were determined by HPLC using a reversed-phase column (μBondaPak C18, 3.9×300 mm, Waters Corporation, Milford, Mass.) and a mobile phase of 38% acetonitrile in deionized water at a flow rate of 1.5 ml/min. Analytes were detected by UV absorbance at 254 nm. Calibration curves were prepared using the peak areas to calculate the concentration of testosterone or Compound VI in the incubate at the completion of the reaction. Cells were lysed after the reaction and the cellular supernatant used to determine •-galactosidase activity and ensure equal transfection efficiency between wells.

Assay [4] deals with T2, human 5α-reductase type 2 (Homo sapiens, UniProt P31213).
T2 construct: expressed in transfected cells; host or cells: COS1 cells; expression vectors obtained from Dr. David W. Russell
T2 sequence (P31213 1-254): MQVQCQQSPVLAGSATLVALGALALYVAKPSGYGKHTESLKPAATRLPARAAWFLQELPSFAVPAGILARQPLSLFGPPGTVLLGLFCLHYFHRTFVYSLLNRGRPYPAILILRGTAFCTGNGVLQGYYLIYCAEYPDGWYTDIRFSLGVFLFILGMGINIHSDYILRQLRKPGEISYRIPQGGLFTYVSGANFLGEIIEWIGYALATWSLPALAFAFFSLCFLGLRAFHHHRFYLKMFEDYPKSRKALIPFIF
Type of assay: cell-based. Conditions: testosterone 4 μM alone, 2 hours. On the procedure:
as §2

Assay [5] concerns intact male Sprague-Dawley rats. Nature of the assay: Organ weights in intact male rats after 3, 6 or 9 days of daily subcutaneous injections. Type of assay: in vivo, rat. As for the experimental part: Methods: Male Sprague-Dawley rats were purchased from Harlan Biosciences (Indianapolis, Ind.). The animals were maintained on a 12-h cycle of light and dark with food and water available ad libitum. Male Sprague-Dawley rats weighing 189 to 226 g were randomly distributed into groups of 5 animals. The intact male rats were treated with hydroxy-flutamide (0.5, 1, 5, 10 or 25 mg/kg), finasteride (5 mg/kg), Compound VII (0.5, 1, 5, 10, 25 mg/kg) or vehicle for 3, 6, or 9 days. The drugs were dissolved in DMSO:PEG300 (20:80, v:v) and administered via daily subcutaneous injections, and the dosages were adjusted based on animal's body weight, which was measured on a daily basis. A group of castrated rats (n=5) was also included as control for each time point. […] The organ weights were normalized with the body weights. Percentage changes were determined by comparison to intact animals. Statistical analyses of all the parameters were performed by single-factor ANOVA with the alpha value set a priori at p<0.05.

The mark [6] stands for this setting: 3 days, all doses (0.5, 1, 5, 10, mg/kg) s.c.

Data on four molecules can be found in patent US8088828B2, “Treating benign prostate hyperplasia with SARMS” (priority 2002, dated 2012).

In the case of `CCC(=O)O[C@H]1CC[C@H]2[C@@H]3CCC4=CC(=O)CC[C@]4(C)[C@H]3CC[C@]12C` [TP, testosterone propionate, reference compound], the “effect on plasma osteocalcin levels” value in assay [1] (all surgical groups, 0.5 mg/day) was “no effect”. In addition, the “effect on plasma FSH and LH levels” value in assay [1] (castrated male rats, 0.5 mg/day) was “significant decrease”. In assay [1] (castrated rats), the “Plasma FSH levels” value is given as 58.0 ± 6.9 † ‡ ng/ml, the “Plasma LH levels” value is 6.702 ± 1.513 ‡ ng/ml, the Plasma osteocalcin levels was 65.976 ± 11.213 ng/mL and the Plasma testosterone levels is 0.258 ± 0.103 † ‡ ng/ml. For the same molecule, in assay [1] (hemi-orchidectomized rats), the “Plasma FSH levels” value worked out at 17.2 ± 3.3 ng/mL, the “Plasma LH levels” value was determined as 0.124 ± 0.092 ng/mL, the Plasma osteocalcin levels was 77.236 ± 24.418 ng/mL and the Plasma testosterone levels is 2.366 ± 1.232 ng/mL. Moreover, in assay [1] (intact rats), the “Plasma FSH levels” value worked out at 11.4 ± 1.7 ng/mL, the “Plasma LH levels” value amounted to 0.168 ± 0.173 ng/mL, the Plasma osteocalcin levels came to 74.952 ± 15.399 ng/mL and the Plasma testosterone levels is 1.482 ± 0.416 ng/mL. Also, in assay [2] (castrated rats), the “Levator ani muscle weight normalized to body weight” value is 87.27 ± 10.25 % of intact control, the “Prostate weight normalized to body weight” value (from here on “Prostate weight normalized”) was 76.78 ± 10.43 % of intact control and the “Seminal vesicle weight normalized to body weight” value (“Seminal vesicle weight normalized” for short) is recorded as 63.48 ± 17.05 % of intact control. Further, in assay [2] (hemi-orchidectomized rats), the “Levator ani muscle weight normalized to body weight” value was 98.63 ± 10.47 % of intact control, the “Prostate weight normalized” value is 98.57 ± 7.98 % of intact control and the “Seminal vesicle weight normalized” value was 114.19 ± 23.81 % of intact control. In assay [2] (intact rats), the “Levator ani muscle weight normalized to body weight” value was 95.61 ± 9.34 % of intact control, the “Prostate weight normalized” value is 97.45 ± 10.82 % of intact control and the “Seminal vesicle weight normalized” value is 103.95 ± 13.23 % of intact control.
`C[C@]12CC[C@H]3[C@@H](CCC4=CC(=O)CC[C@@]43C)[C@@H]1CC[C@@H]2O` [Testosterone, testosterone, reference compound]: the “decrease in testosterone concentration (conversion to DHT)” value in assay [3] was found to be 34%; in assay [4], 35%.
Take `CC(C)(C)NC(=O)[C@H]1CC[C@H]2[C@@H]3CC[C@H]4NC(=O)C=C[C@]4(C)[C@H]3CC[C@]12C` [finasteride]: in assay [5] (3 days, 5 mg/kg s.c.), the “effect on levator ani muscle weight” value is recorded as “no effect”, the “prostate weight (compared to intact animals)” value was 59% and the “seminal vesicle weight (compared to intact animals)” value is reported as 38%. In addition, in assay [5] (6 days, 5 mg/kg s.c.), the “changes in levator ani muscle weight” value was “no significant changes”, the “prostate weight (compared to intact animals)” value is on record as 67% and the “seminal vesicle weight (compared to intact animals)” value was determined as 47%. In addition, in assay [5] (9 days, 5 mg/kg s.c.), the “change in levator ani muscle weight” value is listed as “not significantly changed”, the “prostate weight (compared to intact animals)” value came to 55% and the “seminal vesicle weight (compared to intact animals)” value was found to be 29%.
As for `CC(C)(O)C(=O)Nc1ccc([N+](=O)[O-])c(C(F)(F)F)c1` [hydroxy-flutamide], in assay [5] (setting [6]), the “levator ani muscle weight (compared to intact animals)” value is about 85%; the “prostate weight (normalized to body weight, compared to intact animals)” value was “approximately 60%”; the “seminal vesicle weight (compared to intact animals)” value is about 50%. Moreover, in assay [5] (6 days, 25 mg/kg s.c.), the “levator ani muscle weight (compared to intact animals)” value was determined as 65%, the “prostate weight (compared to intact animals)” value stood at 54% and the “seminal vesicle weight (compared to intact animals)” value worked out at 41%. For the same molecule, the “organ weights (prostate, seminal vesicle, levator ani muscle)” value in assay [5] (6 days, lower dose groups (0.5, 1, 5, 10 mg/kg) s.c.) is reported as “returned to the levels observed in intact animals”. Further, in assay [5] (9 days, 25 mg/kg s.c.), the “effects on all the organ weights compared to previous time points” value is reported as “maintained its effects on all the organ weights at a similar level”. Besides, in assay [5] (9 days, lower doses (0.5, 1, 5, 10 mg/kg) s.c., dose-dependent), the “changes in prostate, seminal vesicle and levator ani muscle weights” value is “moderate decreases”.
